According to patent publication US8293979B2, “Weed controller metabolism proteins, genes, thereof and use of the same” (Sumitomo Chemical Company, Limited, priority 2001, dated 2012):

Tests used:
[1] = tested on: present invention protein (A18); test: Metabolism of compounds by the present invention protein (A18), reaction solution, HPLC; assay type: in vitro ADME, Streptomyces achromogenes IFO 12735; conditions: 12.5 ppm of compound, components A, B, C, 20 μl supernatant fraction of Example 53(2), 30° C. for 10 minutes
[2] = tested on: present invention protein (A14); test: Metabolism of compounds by the present invention protein (A14), reaction solution, HPLC; assay type: in vitro ADME, Streptomyces glomerochromogenes IFO 13673t; conditions: 5 ppm of compound, components A, B, C, 20 μl supernatant fraction of Example 38(2), 30° C. for 10 minutes
[3] = tested on: present invention protein (A11); test: Metabolism of compounds by the present invention protein (A11), reaction solution, HPLC; assay type: in vitro ADME, Streptomyces nogalator IFO13445; conditions: 5 ppm of compound, components A, B, C, 20 μl supernatant fraction of Example 32(2), 30° C. for 10 minutes
Experimental: There was prepared 100 μl of a reaction solution of 50 mM potassium phosphate buffer (pH7.0) containing 5 ppm of compound (XII), 3 mM of […] (hereinafter, referred to as “component A”) (Oriental Yeast Company), 1 mg/ml of a ferredoxin derived from spinach (hereinafter referred to as “component B”) (Sigma Company), 0.15 U/ml of ferredoxin reductase (hereinafter, referred to as “component C”) (Sigma Company) and 20 μl of the supernatant fraction recovered in Example 4(2). The reaction solution was maintained at 30° C. for 10 minutes. Further, there was prepared and maintained similarly 100 μl of a reaction solution of a 50 mM potassium phosphate buffer (pH 7.0) having no addition of at least one component utilized in the composition of the above reaction solution, selected from component A, component B, component C and the supernatant fraction prepared in Example 4(2). Ten microliters (10 μl) of 2N HCl and 500 μl of ethyl acetate were added and mixed into each of the reaction solutions after the maintenance. The resulting reaction solutions were centrifuged at 8,000×g to recover 490 μl of the ethyl acetate layer. After drying the ethyl acetate layers under reduced pressure, the residue was dissolved in 100 μl of 50 mM of potassium phosphate buffer (pH7.0). Forty microliters (40 μl) of the fraction solutions (hereinafter, the fraction solution derived from the reaction solution containing component A, component B, component C and 20 μl of supernatant fraction recovered in Example 4(2) is referred to as “(XII) metabolism solution (A1);” further, the fraction solution derived from the reaction solution containing no component A, no component B, no component C and no supernatant fraction recovered in Example 4(2) is referred to as “(XII) control solution (A1)”) were analyzed on a HPLC. Compared to the concentration of compound (XII) detected from (XII) control solution (A1), the concentration of compound (XII) detected from (XII) metabolism solution (A1) was lower. Further a peak, which was not detected from the (XII) control solution (A1), was detected from the (XII) metabolism solution (A1). Mass spectrometry was conducted for the compound contained in such a peak. […]
Other than utilizing 20 μl of the supernatant fraction recovered in Example 32(2) instead of 20 μl of the supernatant fraction recovered in Example 4(2), the reaction solutions were prepared and maintained in accordance with the method described in Example 41(2). […] Compared to the concentration of compound (XII) detected from (XII) control solution (A11), the concentration of compound (XII) detected from (XII) metabolism solution (A11) was lower. Further a peak, which was not detected from the (XII) control solution (A11), was detected from the (XII) metabolism solution (A11). […]

[4] = tested on: present invention protein (A20); test: Metabolism of compounds by the present invention protein (A20), reaction solution, HPLC; assay type: in vitro ADME, Streptomyces lanatus IFO 12787T; conditions: 12.5 ppm of compound, components A, B, C, 20 μl supernatant fraction of Example 57(2), 30° C. for 10 minutes
[5] = tested on: present invention protein (A23); test: Metabolism of compounds by the present invention protein (A23), reaction solution, HPLC; assay type: in vitro ADME, Streptomyces roseorubens IFO 13682T; conditions: 12.5 ppm of compound, components A, B, C, 20 μl supernatant fraction of Example 63(2), 30° C. for 10 minutes
[6] = tested on: present invention protein (A13); test: Metabolism of compounds by the present invention protein (A13), reaction solution, HPLC; assay type: in vitro ADME, Streptomyces thermocoerulesces IFO 14273t; conditions: 5 ppm of compound, components A, B, C, 20 μl supernatant fraction of Example 36(2), 30° C. for 10 minutes
[7] = tested on: present invention protein (A1); test: Metabolism of compounds by the present invention protein (A1), reaction solution, HPLC; assay type: in vitro ADME, Streptomyces phaeochromogenes IFO12898; conditions: 5 ppm of compound, components A, B, C, 20 μl supernatant fraction of Example 4(2), 30° C. for 10 minutes
Experimental: There was prepared 100 μl of a reaction solution of 50 mM potassium phosphate buffer (pH7.0) containing 5 ppm of compound (XII), 3 mM of […] (hereinafter, referred to as “component A”) (Oriental Yeast Company), 1 mg/ml of a ferredoxin derived from spinach (hereinafter referred to as “component B”) (Sigma Company), 0.15 U/ml of ferredoxin reductase (hereinafter, referred to as “component C”) (Sigma Company) and 20 μl of the supernatant fraction recovered in Example 4(2). The reaction solution was maintained at 30° C. for 10 minutes. Further, there was prepared and maintained similarly 100 μl of a reaction solution of a 50 mM potassium phosphate buffer (pH 7.0) having no addition of at least one component utilized in the composition of the above reaction solution, selected from component A, component B, component C and the supernatant fraction prepared in Example 4(2). Ten microliters (10 μl) of 2N HCl and 500 μl of ethyl acetate were added and mixed into each of the reaction solutions after the maintenance. The resulting reaction solutions were centrifuged at 8,000×g to recover 490 μl of the ethyl acetate layer. After drying the ethyl acetate layers under reduced pressure, the residue was dissolved in 100 μl of 50 mM of potassium phosphate buffer (pH7.0). Forty microliters (40 μl) of the fraction solutions (hereinafter, the fraction solution derived from the reaction solution containing component A, component B, component C and 20 μl of supernatant fraction recovered in Example 4(2) is referred to as “(XII) metabolism solution (A1);” further, the fraction solution derived from the reaction solution containing no component A, no component B, no component C and no supernatant fraction recovered in Example 4(2) is referred to as “(XII) control solution (A1)”) were analyzed on a HPLC. Compared to the concentration of compound (XII) detected from (XII) control solution (A1), the concentration of compound (XII) detected from (XII) metabolism solution (A1) was lower. Further a peak, which was not detected from the (XII) control solution (A1), was detected from the (XII) metabolism solution (A1). Mass spectrometry was conducted for the compound contained in such a peak. The mass of the compound contained in such a peak was 14 smaller than the mass of compound (XII).
Other than utilizing 5 ppm of compound (XIII) instead of 5 ppm of compound (XII), reaction solutions were prepared and maintained similarly to the method described in Example 41(2). […] Compared to the concentration of compound (XIII) detected from (XIII) control solution (A1), the concentration of compound (XIII) detected from (XIII) metabolism solution (A1) was lower. Further a peak, which was not detected from the (XIII) control solution (A1), was detected from the (XIII) metabolism solution (A1). […]

Cn1c(C(F)(F)F)cc(=O)n(-c2cc(Oc3ccccc3OCC(=O)O)c(Cl)cc2F)c1=O [compound (XIII)]
lower: concentration of the compound detected from metabolism solution (A18) compared to control solution (A18) [1] | concentration of the compound detected from metabolism solution (A14) compared to control solution (A14) [2] | concentration of the compound detected from metabolism solution (A11) compared to control solution (A11) [3] | concentration of the compound detected from metabolism solution (A20) compared to control solution (A20) [4] | concentration of the compound detected from metabolism solution (A23) compared to control solution (A23) [5] | concentration of the compound detected from metabolism solution (A13) compared to control solution (A13) [6] | concentration of the compound detected from metabolism solution (A1) compared to control solution (A1) [7]

Cn1c(C(F)(F)F)cc(=O)n(-c2cc(Oc3cccnc3OCC(=O)O)c(Cl)cc2F)c1=O [compound (XII)]
lower: concentration of the compound detected from metabolism solution (A18) compared to control solution (A18) [1] | concentration of the compound detected from metabolism solution (A14) compared to control solution (A14) [2] | concentration of the compound detected from metabolism solution (A11) compared to control solution (A11) [3] | concentration of the compound detected from metabolism solution (A20) compared to control solution (A20) [4] | concentration of the compound detected from metabolism solution (A23) compared to control solution (A23) [5] | concentration of the compound detected from metabolism solution (A13) compared to control solution (A13) [6] | concentration of the compound detected from metabolism solution (A1) compared to control solution (A1) [7]
